Laboratory results reported in patent publication US12172983B2, “EGFR inhibitors” (Blueprint Medicines Corporation, priority 2019, dated 2024).
Read-outs that look alike come from different tables or passages of the source.

What was measured:
EGFR (L858R T790M C797S) = molecular target: T1, EGFR (L858R T790M C797S) (Homo sapiens, UniProt P00533, C797S/L858R/T790M); experiment: Biochemical EGFR inhibition assay (Caliper mobility shift), EGFR LRTMCS mutant; conditions: inhibitory activity against EGFR LRTMCS mutant; apparent IC50; read-out: Ext Enz LRTMCS
T1 construct: purchased SignalChem E10-122VG
T1 sequence (P00533 25-1210 T790M/C797S/L858R): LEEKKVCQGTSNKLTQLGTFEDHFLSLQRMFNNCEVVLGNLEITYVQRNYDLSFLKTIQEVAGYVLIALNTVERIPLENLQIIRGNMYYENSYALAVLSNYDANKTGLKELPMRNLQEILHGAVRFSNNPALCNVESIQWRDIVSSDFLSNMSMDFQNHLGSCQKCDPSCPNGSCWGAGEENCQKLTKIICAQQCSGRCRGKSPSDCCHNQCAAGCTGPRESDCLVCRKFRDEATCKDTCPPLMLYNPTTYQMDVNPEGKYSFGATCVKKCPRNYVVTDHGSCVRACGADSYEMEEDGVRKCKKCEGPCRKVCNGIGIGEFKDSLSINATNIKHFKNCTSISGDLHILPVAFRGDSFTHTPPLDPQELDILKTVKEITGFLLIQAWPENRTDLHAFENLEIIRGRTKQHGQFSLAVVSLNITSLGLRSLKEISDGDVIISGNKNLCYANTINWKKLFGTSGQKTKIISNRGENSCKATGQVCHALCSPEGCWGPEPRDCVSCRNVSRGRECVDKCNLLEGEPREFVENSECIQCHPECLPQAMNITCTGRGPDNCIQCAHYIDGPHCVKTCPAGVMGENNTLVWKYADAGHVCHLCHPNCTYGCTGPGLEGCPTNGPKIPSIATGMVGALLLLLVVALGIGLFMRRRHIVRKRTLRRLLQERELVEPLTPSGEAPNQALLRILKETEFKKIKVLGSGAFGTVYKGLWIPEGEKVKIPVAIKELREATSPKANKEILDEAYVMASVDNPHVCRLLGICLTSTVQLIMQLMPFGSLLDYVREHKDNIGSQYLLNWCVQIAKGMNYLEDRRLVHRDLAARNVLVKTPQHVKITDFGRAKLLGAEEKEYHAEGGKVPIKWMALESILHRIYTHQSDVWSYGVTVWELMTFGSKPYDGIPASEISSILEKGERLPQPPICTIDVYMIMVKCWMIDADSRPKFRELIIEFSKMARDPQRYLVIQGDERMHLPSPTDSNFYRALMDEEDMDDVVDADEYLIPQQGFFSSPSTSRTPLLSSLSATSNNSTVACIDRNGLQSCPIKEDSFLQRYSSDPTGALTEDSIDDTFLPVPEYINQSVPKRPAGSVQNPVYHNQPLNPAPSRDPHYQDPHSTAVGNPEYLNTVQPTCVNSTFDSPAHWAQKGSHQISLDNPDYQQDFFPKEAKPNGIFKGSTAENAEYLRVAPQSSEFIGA
Outline: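 Kinase reactions at 25 °C run to 10–20% peptide phosphorylation, stopped with 35 mM EDTA. Phosphorylated product and substrate separated electrophoretically by mobility shift. Apparent IC50 from percent activity versus log compound concentration.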

[1] = tested on: phosphorylation of EGFR (Tyr1068) in NCI-H1975 cell line that harbors the EGFR L858R T790M mutations; experiment: NCI-H1975 pEGFR AlphaLISA assay; format: cell-based; conditions: 4-5 hours incubation, read-out: Ext pEGFR H1975
Outline: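 Phospho-EGFR Tyr1068 AlphaLISA readout: lysates taken from compound-treated H1975 cells (L858R T790M EGFR) after a 4-5 h exposure at 37 °C. Cells had adhered overnight beforehand. IC50 derived by plotting % pEGFR inhibition against log compound concentration.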

[2] = Homo sapiens, NCI-H1975, inhibition of phosphorylation of mutant EGFR in NCI-H1975 cells
[3] = inhibition of phosphorylation of mutant EGFR in NCI-H1975 cells

| Structure (SMILES) | IC50 (EGFR (L858R T790M C797S)) | IC50 [1, 2] | IC50 [1, 3] |
| --- | --- | --- | --- |
| CC(C)c1ccc(N2C[C@H](CS(C)(=O)=O)[C@H]2C)c2cnc(Nc3ccnc(N4CC[C@H]5COC[C@H]54)n3)cc12 (single isomer, unassigned) [Compound 40] | ≤ 0.015 µM | ≤ 0.01 µM | – |
| CC(C)c1ccc(N2C[C@H](CS(C)(=O)=O)[C@H]2C)c2cnc(Nc3ccnc(N4CC[C@](F)(CO)C4)n3)cc12 (single isomer, unassigned) [Compound 271, [(3S)-3-fluoro-1-[4-({8-[(2R,3S)-3-(methanesulfonylmethyl)-2-methylazetidin-1-yl]-5-(propan-2-yl)isoquinolin-3-yl}amino)pyrimidin-2-yl]pyrrolidin-3-yl]methanol or [(3R)-3-fluoro-1-[4-({8-[(2R,3S)-3-(methanesulfonylmethyl)-2-methylazetidin-1-yl]-5-(propan-2-yl)isoquinolin-3-yl}amino)pyrimidin-2-yl]pyrrolidin-3-yl]methanol] | ≤ 0.015 µM | – | ≤ 0.01 µM |
| CO[C@H]1CCN(c2nccc(Nc3cc4c(C(C)C)ccc(N5CC(CS(C)(=O)=O)C5)c4cn3)n2)CC1(F)F (single isomer, unassigned) [Compound 158] | 0.0151 to 0.02 µM | 0.0101 to 0.02 µM | – |
| CC(C)c1ncc(N2C[C@H](CS(C)(=O)=O)[C@H]2C)c2cnc(Nc3ccnc(N4CC[C@@](C)(O)[C@@H](F)C4)n3)cc12 (single isomer, unassigned) [Compound 138] | ≤ 0.015 µM | ≤ 0.01 µM | – |
| CCS(=O)(=O)CC1CN(c2ncc(C(C)C)c3cc(Nc4ccnc(N5CCN[C@@H](C(F)F)C5)n4)ncc23)C1 (single isomer, unassigned) [Compound 160, N-{2-[(3R)-3-(difluoromethyl)piperazin-1-yl]pyrimidin-4-yl}-8-{3-[(ethanesulfonyl)methyl]azetidin-1-yl}-5-(propan-2-yl)-2,7-naphthyridin-3-amine or N-{2-[(3S)-3-(difluoromethyl)piperazin-1-yl]pyrimidin-4-yl}-8-{3-[(ethanesulfonyl)methyl]azetidin-1-yl}-5-(propan-2-yl)-2,7-naphthyridin-3-amine] | 0.0151 to 0.02 µM | 0.0301 to 0.05 µM | – |
| CC(C)c1ccc(N2CC(CS(C)(=O)=O)C2)c2cnc(Nc3ccnc(N4CCC5(OCCO5)[C@H](F)C4)n3)cc12 (single isomer, unassigned) [Compound 181, N-{2-[(6R)-6-fluoro-1,4-dioxa-8-azaspiro[4.5]decan-8-yl]pyrimidin-4-yl}-8-[3-(methanesulfonylmethyl)azetidin-1-yl]-5-(propan-2-yl)isoquinolin-3-amine or N-{2-[(6S)-6-fluoro-1,4-dioxa-8-azaspiro[4.5]decan-8-yl]pyrimidin-4-yl}-8-[3-(methanesulfonylmethyl)azetidin-1-yl]-5-(propan-2-yl)isoquinolin-3-amine] | ≤ 0.015 µM | – | 0.0101 to 0.02 µM |
| CC(C)c1ccc(N2CC(CS(C)(=O)=O)C2)c2cnc(Nc3ccnc(N4CCC5(CCO5)CC4)n3)cc12 [Compound 38, 8-[3-(methanesulfonylmethyl)azetidin-1-yl]-N-(2-{1-oxa-7-azaspiro[3.5]nonan-7-yl}pyrimidin-4-yl)-5-(propan-2-yl)isoquinolin-3-amine] | ≤ 0.015 µM | ≤ 0.01 µM | – |
| COCCO[C@@H]1CCN(c2nccc(Nc3cc4c(C(C)C)ccc(N5C[C@H](CS(C)(=O)=O)[C@H]5C)c4cn3)n2)C[C@@H]1F (single isomer, unassigned) [Compound 245] | ≤ 0.015 µM | ≤ 0.01 µM | – |
